Experimental data as given in ChEMBL document CHEMBL4627246, “Pyroglutamide-Based P2X7 Receptor Antagonists Targeting Inflammatory Bowel Disease” (J Med Chem, 2020).

test system: T47D; assay: Cytotoxicity against human T47D cells assessed as effect on cell growth at 10 uM incubated for 48 hrs by sulforhodamine B assay; assay type: cell-based; details: not given

Row | SMILES | Activity
1 | O=C(NCCc1ccc(Cl)cc1Cl)[C@@H]1CCC(=O)N1c1ccccc1 | Non-Toxic
2 | COc1cc(CNC(=O)[C@@H]2CCC(=O)N2)cc(OC)c1OC | Non-Toxic
3 | COc1ccc(CN2C(=O)CC[C@H]2C(=O)NCCc2ccccc2)cc1 | Non-Toxic

test system: SNB-75; assay: Cytotoxicity against human SNB75 cells assessed as effect on cell growth at 10 uM incubated for 48 hrs by sulforhodamine B assay; assay type: cell-based; details: snb-75, 48 h

Row | SMILES | Activity
4 | O=C(NCCc1ccc(Cl)cc1Cl)[C@@H]1CCC(=O)N1c1ccccc1 | Non-Toxic
5 | COc1cc(CNC(=O)[C@@H]2CCC(=O)N2)cc(OC)c1OC | Non-Toxic
6 | COc1ccc(CN2C(=O)CC[C@H]2C(=O)NCCc2ccccc2)cc1 | Non-Toxic

test system: NCI-H322M; assay: Cytotoxicity against human NCI-H322M cells assessed as effect on cell growth at 10 uM incubated for 48 hrs by sulforhodamine B assay; assay type: cell-based; details: not given

Row | SMILES | Activity
7 | O=C(NCCc1ccc(Cl)cc1Cl)[C@@H]1CCC(=O)N1c1ccccc1 | Non-Toxic
8 | COc1cc(CNC(=O)[C@@H]2CCC(=O)N2)cc(OC)c1OC | Non-Toxic
9 | COc1ccc(CN2C(=O)CC[C@H]2C(=O)NCCc2ccccc2)cc1 | Non-Toxic

test system: IGROV-1; assay: Cytotoxicity against human IGROV1 cells assessed as effect on cell growth at 10 uM incubated for 48 hrs by sulforhodamine B assay; assay type: cell-based; details: igrov-1, 48 h

Row | SMILES | Activity
10 | O=C(NCCc1ccc(Cl)cc1Cl)[C@@H]1CCC(=O)N1c1ccccc1 | Non-Toxic
11 | COc1cc(CNC(=O)[C@@H]2CCC(=O)N2)cc(OC)c1OC | Non-Toxic
12 | COc1ccc(CN2C(=O)CC[C@H]2C(=O)NCCc2ccccc2)cc1 | Non-Toxic

test system: SNB-19; assay: Cytotoxicity against human SNB19 cells assessed as effect on cell growth at 10 uM incubated for 48 hrs by sulforhodamine B assay; assay type: cell-based; details: snb-19, 48 h

Row | SMILES | Activity
13 | O=C(NCCc1ccc(Cl)cc1Cl)[C@@H]1CCC(=O)N1c1ccccc1 | Non-Toxic
14 | COc1cc(CNC(=O)[C@@H]2CCC(=O)N2)cc(OC)c1OC | Non-Toxic
15 | COc1ccc(CN2C(=O)CC[C@H]2C(=O)NCCc2ccccc2)cc1 | Non-Toxic

test system: HCT-116; assay: Cytotoxicity against human HCT116 cells assessed as effect on cell growth at 10 uM incubated for 48 hrs by sulforhodamine B assay; assay type: cell-based; details: hct-116, 48 h

Row | SMILES | Activity
16 | O=C(NCCc1ccc(Cl)cc1Cl)[C@@H]1CCC(=O)N1c1ccccc1 | Non-Toxic
17 | COc1cc(CNC(=O)[C@@H]2CCC(=O)N2)cc(OC)c1OC | Non-Toxic
18 | COc1ccc(CN2C(=O)CC[C@H]2C(=O)NCCc2ccccc2)cc1 | Non-Toxic

test system: U-251; assay: Cytotoxicity against human U251 cells assessed as effect on cell growth at 10 uM incubated for 48 hrs by sulforhodamine B assay; assay type: cell-based; details: u-251, 48 h

Row | SMILES | Activity
19 | O=C(NCCc1ccc(Cl)cc1Cl)[C@@H]1CCC(=O)N1c1ccccc1 | Non-Toxic
20 | COc1cc(CNC(=O)[C@@H]2CCC(=O)N2)cc(OC)c1OC | Non-Toxic
21 | COc1ccc(CN2C(=O)CC[C@H]2C(=O)NCCc2ccccc2)cc1 | Non-Toxic

test system: HCC 2998; assay: Cytotoxicity against human HCC2998 cells assessed as effect on cell growth at 10 uM incubated for 48 hrs by sulforhodamine B assay; assay type: cell-based; details: hcc 2998, 48 h

Row | SMILES | Activity
22 | O=C(NCCc1ccc(Cl)cc1Cl)[C@@H]1CCC(=O)N1c1ccccc1 | Non-Toxic
23 | COc1cc(CNC(=O)[C@@H]2CCC(=O)N2)cc(OC)c1OC | Non-Toxic
24 | COc1ccc(CN2C(=O)CC[C@H]2C(=O)NCCc2ccccc2)cc1 | Non-Toxic

test system: TK-10; assay: Cytotoxicity against human TK10 cells assessed as effect on cell growth at 10 uM incubated for 48 hrs by sulforhodamine B assay; assay type: cell-based; details: tk-10, 48 h

Row | SMILES | Activity
25 | O=C(NCCc1ccc(Cl)cc1Cl)[C@@H]1CCC(=O)N1c1ccccc1 | Non-Toxic
26 | COc1cc(CNC(=O)[C@@H]2CCC(=O)N2)cc(OC)c1OC | Non-Toxic
27 | COc1ccc(CN2C(=O)CC[C@H]2C(=O)NCCc2ccccc2)cc1 | Non-Toxic

test system: HT-29; assay: Cytotoxicity against human HT-29 cells assessed as effect on cell growth at 10 uM incubated for 48 hrs by sulforhodamine B assay; assay type: cell-based; details: ht-29, 48 h

Row | SMILES | Activity
28 | O=C(NCCc1ccc(Cl)cc1Cl)[C@@H]1CCC(=O)N1c1ccccc1 | Non-Toxic
29 | COc1cc(CNC(=O)[C@@H]2CCC(=O)N2)cc(OC)c1OC | Non-Toxic
30 | COc1ccc(CN2C(=O)CC[C@H]2C(=O)NCCc2ccccc2)cc1 | Non-Toxic

test system: HOP-92; assay: Cytotoxicity against human HOP92 cells assessed as effect on cell growth at 10 uM incubated for 48 hrs by sulforhodamine B assay; assay type: cell-based; details: hop-92, 48 h

Row | SMILES | Activity
31 | O=C(NCCc1ccc(Cl)cc1Cl)[C@@H]1CCC(=O)N1c1ccccc1 | Non-Toxic
32 | COc1cc(CNC(=O)[C@@H]2CCC(=O)N2)cc(OC)c1OC | Non-Toxic
33 | COc1ccc(CN2C(=O)CC[C@H]2C(=O)NCCc2ccccc2)cc1 | Non-Toxic

test system: NCI-H522; assay: Cytotoxicity against human NCI-H522 cells assessed as effect on cell growth at 10 uM incubated for 48 hrs by sulforhodamine B assay; assay type: cell-based; details: nci-h522, 48 h

Row | SMILES | Activity
34 | O=C(NCCc1ccc(Cl)cc1Cl)[C@@H]1CCC(=O)N1c1ccccc1 | Non-Toxic
35 | COc1cc(CNC(=O)[C@@H]2CCC(=O)N2)cc(OC)c1OC | Non-Toxic
36 | COc1ccc(CN2C(=O)CC[C@H]2C(=O)NCCc2ccccc2)cc1 | Non-Toxic

test system: Malme-3M; assay: Cytotoxicity against human MALME-3M cells assessed as effect on cell growth at 10 uM incubated for 48 hrs by sulforhodamine B assay; assay type: cell-based; details: not given

Row | SMILES | Activity
37 | O=C(NCCc1ccc(Cl)cc1Cl)[C@@H]1CCC(=O)N1c1ccccc1 | Non-Toxic
38 | COc1cc(CNC(=O)[C@@H]2CCC(=O)N2)cc(OC)c1OC | Non-Toxic
39 | COc1ccc(CN2C(=O)CC[C@H]2C(=O)NCCc2ccccc2)cc1 | Non-Toxic

test system: UACC-62; assay: Cytotoxicity against human UACC62 cells assessed as effect on cell growth at 10 uM incubated for 48 hrs by sulforhodamine B assay; assay type: cell-based; details: uacc-62, 48 h

Row | SMILES | Activity
40 | O=C(NCCc1ccc(Cl)cc1Cl)[C@@H]1CCC(=O)N1c1ccccc1 | Non-Toxic
41 | COc1cc(CNC(=O)[C@@H]2CCC(=O)N2)cc(OC)c1OC | Non-Toxic
42 | COc1ccc(CN2C(=O)CC[C@H]2C(=O)NCCc2ccccc2)cc1 | Non-Toxic

test system: MDA-MB-468; assay: Cytotoxicity against human MDA-MB-468 cells assessed as effect on cell growth at 10 uM incubated for 48 hrs by sulforhodamine B assay; assay type: cell-based; details: mda-mb-468, 48 h

Row | SMILES | Activity
43 | O=C(NCCc1ccc(Cl)cc1Cl)[C@@H]1CCC(=O)N1c1ccccc1 | Non-Toxic
44 | COc1cc(CNC(=O)[C@@H]2CCC(=O)N2)cc(OC)c1OC | Non-Toxic
45 | COc1ccc(CN2C(=O)CC[C@H]2C(=O)NCCc2ccccc2)cc1 | Non-Toxic

test system: COLO 205; assay: Cytotoxicity against human COLO205 cells assessed as effect on cell growth at 10 uM incubated for 48 hrs by sulforhodamine B assay; assay type: cell-based; details: colo 205, 48 h

Row | SMILES | Activity
46 | O=C(NCCc1ccc(Cl)cc1Cl)[C@@H]1CCC(=O)N1c1ccccc1 | Non-Toxic
47 | COc1cc(CNC(=O)[C@@H]2CCC(=O)N2)cc(OC)c1OC | Non-Toxic
48 | COc1ccc(CN2C(=O)CC[C@H]2C(=O)NCCc2ccccc2)cc1 | Non-Toxic

test system: PC-3; assay: Cytotoxicity against human PC3 cells assessed as effect on cell growth at 10 uM incubated for 48 hrs by sulforhodamine B assay; assay type: cell-based; details: pc-3, 48 h

Row | SMILES | Activity
49 | O=C(NCCc1ccc(Cl)cc1Cl)[C@@H]1CCC(=O)N1c1ccccc1 | Non-Toxic
50 | COc1cc(CNC(=O)[C@@H]2CCC(=O)N2)cc(OC)c1OC | Non-Toxic
51 | COc1ccc(CN2C(=O)CC[C@H]2C(=O)NCCc2ccccc2)cc1 | Non-Toxic

test system: NCI-H23; assay: Cytotoxicity against human NCI-H23 cells assessed as effect on cell growth at 10 uM incubated for 48 hrs by sulforhodamine B assay; assay type: cell-based; details: nci-h23, 48 h

Row | SMILES | Activity
52 | O=C(NCCc1ccc(Cl)cc1Cl)[C@@H]1CCC(=O)N1c1ccccc1 | Non-Toxic
53 | COc1cc(CNC(=O)[C@@H]2CCC(=O)N2)cc(OC)c1OC | Non-Toxic
54 | COc1ccc(CN2C(=O)CC[C@H]2C(=O)NCCc2ccccc2)cc1 | Non-Toxic

test system: NCI/ADR-RES; assay: Cytotoxicity against human NCI/ADR-RES cells assessed as effect on cell growth at 10 uM incubated for 48 hrs by sulforhodamine B assay; assay type: cell-based; details: not given

Row | SMILES | Activity
55 | O=C(NCCc1ccc(Cl)cc1Cl)[C@@H]1CCC(=O)N1c1ccccc1 | Non-Toxic
56 | COc1cc(CNC(=O)[C@@H]2CCC(=O)N2)cc(OC)c1OC | Non-Toxic
57 | COc1ccc(CN2C(=O)CC[C@H]2C(=O)NCCc2ccccc2)cc1 | Non-Toxic

test system: OVCAR-8; assay: Cytotoxicity against human OVCAR8 cells assessed as effect on cell growth at 10 uM incubated for 48 hrs by sulforhodamine B assay; assay type: cell-based; details: ovcar-8, 48 h

Row | SMILES | Activity
58 | O=C(NCCc1ccc(Cl)cc1Cl)[C@@H]1CCC(=O)N1c1ccccc1 | Non-Toxic
59 | COc1cc(CNC(=O)[C@@H]2CCC(=O)N2)cc(OC)c1OC | Non-Toxic
60 | COc1ccc(CN2C(=O)CC[C@H]2C(=O)NCCc2ccccc2)cc1 | Non-Toxic
